For three molecules, Dmax and DC50 results are on record in US20260297106A1, “SPIROCYCLIC SUBSTITUTED OXOISOINDOLINYL PIPERIDINE-2,6-DIONE COMPOUND” (Bristol-Myers Squibb Company, priority 2023, published 2026).

Read-outs that look alike come from different tables or passages of the source.

One experiment addresses IKZF1 Ikaros (Homo sapiens, UniProt Q13422+Q96SW2). Briefly: Jurkat Cellular Degradation Assay (IKZF1 Ikaros). The class given is cell-based. Set-up: endogenous in cells. The note with it: Jurkat cells, 72 h; for Dmax: human, 100% = no detectable protein remaining, read-out: IKZF1 Ikaros max % deg. observed. Here is the method: Jurkat cells were plated at 80,000 cells/well in 40 μL RPMI+10% FBS in a 384-well cell culture plate prior to using acoustic dispensing technology for adding a compound of interest. Cell cultures were incubated for 72 h at 37° C. and 5% CO2. In order to facilitate analysis, cell cultures were spun down at 200 rpm for 5 min and the supernatant was discarded. After shaking the plate to dislodge the cell pellet, cells were resuspended in 50 μL of Fixation Buffer (eBioscience FoxP3 buffer set 00-5523-00) for 60 min at room temperature. After centrifuging and discarding the supernatant, cells were permeabilized with 50 μL of Permeabilization buffer (eBioscience FoxP3 buffer set 00-5523-00) for 10 min at room temperature. Following permeabilization, cells were spun down and the supernatant was replaced with 20 μL fluorescently labelled antibodies against Helios, Ikaros and Aiolos or corresponding Isotype controls in 1× Permeabilization buffer (Ikaros-Alexa488 [Biolegend, Cat #368408, 1:50], Helios-PE [CST, Cat #29360, 1:50], Aiolos-Alexa647 [Biolegend, Cat #371106 Biolegend, 1:25]) and staining reactions were incubated for 1 h at room temperature while protected from light. Subsequently, 30 μL of 1× Permeabilization buffer was added prior to centrifuging the cells and discarding the supernatant. Stained cells were resuspended in 25 μL of flow cytometry staining buffer [PBS+0.2% bovine serum albumin (BSA)] and analyzed using an Intellicyt Ique Plus flow cytometer.
Table A-1 lists the maximum observed degradation of the IKZF1 protein, IKZF2 protein, and IKZF3 protein as measured in the Jurkat Cellular Degradation assay. The results in Table A-I were rounded to two digits. In the Jurkat Cellular Degradation assay, a value of 100% indicated no detectable protein remaining or complete degradation of the protein; and a value of 0% indicated no detectable degradation of the protein by the test compound.

Another experiment deals with IKZF3 Aiolos (Homo sapiens, UniProt Q96SW2+Q9UKT9). Description: Human CD8+ T Cell Reprogramming Assay (IKZF3 Aiolos). On the set-up: Cryopreserved healthy donor human peripheral blood mononuclear cells; endogenous in cells; host or cells: primary human PBMC, CD8+ T cells read by flow cytometry. The experiment is classed as cell-based. The protocol:
Cryopreserved healthy donor human peripheral blood mononuclear cells (PBMC) from healthy donors were thawed and seeded at 500,000 cells/well of 96-well round bottom plates in RPMI 1640 media (Gibco) supplemented with 10% FBS, Pen/Strep (Gibco), MEM-NEAA (Gibco), and sodium pyruvate (Gibco). Cells were treated with titrated doses of compound for 24 hours at 37° C., 5% CO2 before analyzing by flow cytometry.
For flow cytometry staining, cells were washed twice with flow cytometry staining buffer (Thermo Fisher) and incubated in Human Tru-stain Fc block (Biolegend) for 10 minutes before adding eFluor780 viability dye (Thermo Fisher) and surface marker antibody cocktail containing LD-eFluor780, CD3-BUV-395, CD4-BUV805, CD8-FITC, and CD25-BV605 for 30 minutes at 4° C. Cells were then fixed and permeabilized by incubation with permeabilization buffer (eBioscience FoxP3 buffer set 00-5523-00) for 30 minutes at 4° C. as per the kit manufacturer's instructions. Cells were washed twice with the Perm/Wash buffer supplied in the kit as per the manufacturer's instructions and incubated overnight at 4° C. with an intracellular antibody cocktail comprised of antibodies specific for the transcription factors (i.e., Foxp3-BV421, HELIOS-PE-Cy7, EOS-PE, IKAROS-PECF594, AIOLOS-AF647). Cells were washed twice with Perm/Wash buffer and resuspended in flow cytometry staining buffer (Thermo Fisher) prior to acquisition. Sample acquisition and analysis was performed using a BD LSRFortessa (BD Biosciences) flow cytometer. Single-stain controls for each fluorochrome were prepared using UltraComp eBead Compensation Beads (Thermo Fisher). Data were analyzed using FlowJo version 10 and GraphPad Prism Software.
Table D-1 lists the maximum observed degradation of the IKZF1 protein and IKZF3 protein as measured in the Human CD8^+ T Cell Reprogramming assay. The results in Table D-1 were rounded to two digits. In the Human CD8^+ T Cell Reprogramming assay, a value of 100% indicated no detectable protein remaining or complete degradation of the protein; and a value of 0% indicated no detectable degradation of the protein by the test compound.

Where [1] appears, read: human PBMC, CD8+ T cells, 24 hours, read-out: Maximum Observed Degradation IKZF3 Aiolos.

Chain of IKZF3 Aiolos (Q9UKT9 whole entry): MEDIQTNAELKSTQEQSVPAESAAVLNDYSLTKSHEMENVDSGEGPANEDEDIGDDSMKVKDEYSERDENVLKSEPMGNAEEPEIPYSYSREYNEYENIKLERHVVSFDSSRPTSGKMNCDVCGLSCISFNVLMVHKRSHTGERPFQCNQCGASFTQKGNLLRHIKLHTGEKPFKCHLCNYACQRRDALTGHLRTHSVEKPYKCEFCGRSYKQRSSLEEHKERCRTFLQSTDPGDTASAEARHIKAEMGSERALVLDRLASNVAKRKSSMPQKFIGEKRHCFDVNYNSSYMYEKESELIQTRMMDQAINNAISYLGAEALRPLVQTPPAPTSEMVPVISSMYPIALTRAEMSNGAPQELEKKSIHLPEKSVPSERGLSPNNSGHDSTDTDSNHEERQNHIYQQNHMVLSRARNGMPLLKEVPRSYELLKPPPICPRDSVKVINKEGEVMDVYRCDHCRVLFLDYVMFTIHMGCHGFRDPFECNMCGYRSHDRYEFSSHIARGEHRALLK
Chain of IKZF3 Aiolos (Q96SW2 whole entry): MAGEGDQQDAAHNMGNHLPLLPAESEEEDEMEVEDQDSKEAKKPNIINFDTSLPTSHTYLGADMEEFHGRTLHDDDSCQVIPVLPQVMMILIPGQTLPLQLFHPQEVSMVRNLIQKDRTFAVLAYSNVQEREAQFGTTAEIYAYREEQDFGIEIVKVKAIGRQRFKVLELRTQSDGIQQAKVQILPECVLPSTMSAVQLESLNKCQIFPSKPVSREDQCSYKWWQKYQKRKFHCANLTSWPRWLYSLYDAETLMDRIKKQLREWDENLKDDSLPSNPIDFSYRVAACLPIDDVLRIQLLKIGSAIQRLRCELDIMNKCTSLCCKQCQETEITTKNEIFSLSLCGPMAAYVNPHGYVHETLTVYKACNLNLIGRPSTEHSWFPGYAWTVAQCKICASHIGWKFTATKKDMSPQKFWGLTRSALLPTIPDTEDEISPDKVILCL
Chain of IKZF3 Aiolos (Q16531 whole entry partner): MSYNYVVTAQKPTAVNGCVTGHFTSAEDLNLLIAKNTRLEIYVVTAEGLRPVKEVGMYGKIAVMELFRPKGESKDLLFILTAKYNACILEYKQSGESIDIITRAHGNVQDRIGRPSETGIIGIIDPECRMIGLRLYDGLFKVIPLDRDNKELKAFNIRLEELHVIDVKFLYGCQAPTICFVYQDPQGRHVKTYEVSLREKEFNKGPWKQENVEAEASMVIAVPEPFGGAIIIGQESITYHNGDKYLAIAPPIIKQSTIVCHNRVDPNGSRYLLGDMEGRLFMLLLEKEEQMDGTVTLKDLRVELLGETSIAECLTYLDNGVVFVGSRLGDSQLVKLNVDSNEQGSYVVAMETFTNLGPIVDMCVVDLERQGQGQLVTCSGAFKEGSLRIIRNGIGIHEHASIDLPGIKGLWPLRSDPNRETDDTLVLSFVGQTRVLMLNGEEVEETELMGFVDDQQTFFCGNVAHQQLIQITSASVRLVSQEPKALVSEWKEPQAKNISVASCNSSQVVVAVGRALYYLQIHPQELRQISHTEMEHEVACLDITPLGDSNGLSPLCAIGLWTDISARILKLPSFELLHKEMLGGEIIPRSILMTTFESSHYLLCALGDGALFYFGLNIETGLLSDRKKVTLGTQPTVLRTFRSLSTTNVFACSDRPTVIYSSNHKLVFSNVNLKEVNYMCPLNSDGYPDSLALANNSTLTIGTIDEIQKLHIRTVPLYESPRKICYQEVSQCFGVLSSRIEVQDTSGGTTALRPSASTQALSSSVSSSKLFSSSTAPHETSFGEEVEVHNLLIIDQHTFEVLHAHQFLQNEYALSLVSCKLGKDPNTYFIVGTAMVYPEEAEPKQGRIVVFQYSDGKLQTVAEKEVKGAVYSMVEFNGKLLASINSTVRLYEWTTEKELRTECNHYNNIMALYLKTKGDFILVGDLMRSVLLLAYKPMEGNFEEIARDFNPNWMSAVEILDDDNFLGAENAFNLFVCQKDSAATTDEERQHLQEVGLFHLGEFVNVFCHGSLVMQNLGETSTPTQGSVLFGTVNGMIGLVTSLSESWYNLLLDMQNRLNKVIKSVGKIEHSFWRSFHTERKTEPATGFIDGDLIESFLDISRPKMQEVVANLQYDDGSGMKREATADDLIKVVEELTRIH
Chain of IKZF1 Ikaros (Q13422 whole entry): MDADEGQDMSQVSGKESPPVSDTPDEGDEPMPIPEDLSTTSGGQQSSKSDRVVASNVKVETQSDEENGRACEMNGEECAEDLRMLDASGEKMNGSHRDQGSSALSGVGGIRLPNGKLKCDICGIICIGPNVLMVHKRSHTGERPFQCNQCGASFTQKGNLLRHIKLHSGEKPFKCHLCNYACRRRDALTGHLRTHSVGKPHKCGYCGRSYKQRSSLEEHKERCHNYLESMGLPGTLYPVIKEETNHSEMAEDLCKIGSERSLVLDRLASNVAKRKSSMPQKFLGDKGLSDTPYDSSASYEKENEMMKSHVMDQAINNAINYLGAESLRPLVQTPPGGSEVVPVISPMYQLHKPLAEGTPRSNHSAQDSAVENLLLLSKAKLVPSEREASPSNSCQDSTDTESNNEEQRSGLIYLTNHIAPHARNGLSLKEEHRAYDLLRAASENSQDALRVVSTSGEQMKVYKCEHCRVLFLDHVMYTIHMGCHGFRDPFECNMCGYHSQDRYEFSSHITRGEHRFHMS
Chain of IKZF1 Ikaros (Q96SW2 whole entry): as the sequence (Q96SW2 whole entry) above
Chain of IKZF1 Ikaros (Q16531 whole entry partner): as the sequence (Q16531 whole entry partner) above

Take `O=C1CCC(N2Cc3c(ccc(-c4cc(CN5CC(c6ccccc6)C5)ccn4)c3F)C2=O)C(=O)N1` (stereo not shown) [Comparative Compound A, 3-(4-fluoro-1-oxo-5-(4-((3-phenylazetidin-1-yl)methyl)pyridin-2-yl)isoindolin-2-yl) piperidine-2,6-dione]: the Dmax on IKZF1 Ikaros amounted to 13%; on IKZF3 Aiolos (setting [1]) it was 39%.

Take `Nc1nc(-c2ccc3c(c2)CN(C2CCC(=O)NC2=O)C3=O)ccc1CN1CC2(CCC2)C1` (stereo not shown) [Comparative Compound B, 3-(5-(5-((2-azaspiro[3.3]heptan-2-yl)methyl)-6-aminopyridin-2-yl)-1-oxoisoindolin-2-yl) piperidine-2,6-dione]: the Dmax on IKZF1 Ikaros came out at 48%; on IKZF3 Aiolos (setting [1]), 2%.

With `Nc1nc(-c2ccc3c(c2F)CN(C2CCC(=O)NC2=O)C3=O)ccc1CN1CC2(CCCOC2)C1` (stereo not shown) [Example 1, 3-(5-(5-((6-oxa-2-azaspiro[3.5]nonan-2-yl)methyl)-6-aminopyridin-2-yl)-4-fluoro-1-oxoisoindolin-2-yl) piperidine-2,6-dione], the DC50 is 6.44 µM at IKZF1 Ikaros (concentration reducing protein level by 50% vs DMSO) and 0.023 to 0.035 µM on IKZF3 Aiolos (human PBMC, CD8+ T cells, 24 hours, concentration reducing protein level by 50% vs DMSO). In addition, the Dmax was 53% at IKZF1 Ikaros; 62 to 66% at IKZF3 Aiolos (setting [1]); 62 to 66% on IKZF3 Aiolos (human, 24 h, Table D-1, read-out: decreased the level of IKZF3 (Aiolos)); 62 to 66% at IKZF3 Aiolos (human, 24 h, Table E comparison, from Table D-1, read-out: IKZF3 Aiolos max % deg. observed).
